In patent publication US9961898B2, “Method for controlling plant disease” (SUMITOMO CHEMICAL COMPANY, LIMITED, priority 2008, dated 2018):

Tests used:
Format in all cases: in vivo
[1] = test system: Pythium disease; assay: Seed treatment, emergence of corn seedlings in Pythium-infested soil (tray test); settings: 14 days 10° C. then 11 days 18° C.; for Ratio of sound non-transgenic seeds: non-transgenic corn seeds; for Ratio of sound transgenic seeds: transgenic corn seeds (glyphosate tolerance, rootworm resistance)
Description: Ethaboxam, formulated in a flowable concentrate for seed treatment use, was added to water so that the total slurry applied to a specified amount of seed would deliver a designated concentration of ethaboxam per 100 KG seed. The prepared slurry was applied to non-transgenic corn seeds and to transgenic corn seeds having both glyphosate tolerance and rootworm resistance. In a tray, Kimpack (absorbent cellulose wadding, trademark of Kimberly-Clark) was placed and wetted. Each of the corn seed types of each treatment rate was placed on the Kimpack and covered with soil, which is a 1:1 mixture of Pythium-infested field soil and sand. After keeping the soil saturated for 14 days at 10° C., the trays were transferred to 18° C. for 11 days.

[2] = test system: Pythium spp.; assay: Seed treatment, emergence of corn under field conditions; settings: for Ratio of sound non-transgenic seeds: non-transgenic corn seeds; for Ratio of sound transgenic seeds: transgenic corn seeds (glyphosate tolerance, rootworm resistance)
Description: (§1) Ethaboxam, formulated in a flowable concentrate for seed treatment use, was added to water so that the total slurry applied to a specified amount of seed would deliver a designated concentration. The prepared slurry was applied to non-transgenic corn seeds and transgenic corn seeds having both glyphosate tolerance and rootworm resistance. […] Emergence (%) was determined at 7 and 14 DAP and recorded in Table 2.

[3] = test system: Pythium ultimum; assay: Seed treatment, emergence of cotton under field conditions; settings: for Ratio of sound non-transgenic seeds: non-transgenic cotton seeds; for Ratio of sound transgenic seeds: transgenic cotton seeds (Bacillus thuringiensis endotoxins, glyphosate tolerant)
Description: as §1
The same procedure as Test example 2 was conducted, except that cotton seeds which express Bacillus thuringiensis endotoxins and tolerant against glyphosate, were used in place of corn seeds. Disease incited by Pythium ultimum is reduced of the […]. The transgenic cotton source provided higher field stand establishment of seedlings when compared to the non-transgenic cotton. (Table 3).

## CCNc1nc(CC)c(C(=O)NC(C#N)c2cccs2)s1 (centres unmarked) [ethaboxam, N-(cyano-2-thienylmethyl)-4-ethyl-2-(ethylamino)-5-thiazolecarboxamide]
[1]; ethaboxam 0.05 gai/100 kg seed
  Ratio of sound non-transgenic seeds: 39%
  Ratio of sound transgenic seeds: 57%
[1]; ethaboxam 0.1 gai/100 kg seed
  Ratio of sound non-transgenic seeds: 41%
  Ratio of sound transgenic seeds: 59%
[1]; ethaboxam 0.5 gai/100 kg seed
  Ratio of sound non-transgenic seeds: 47%
  Ratio of sound transgenic seeds: 65%
[1]; ethaboxam 1.0 gai/100 kg seed
  Ratio of sound non-transgenic seeds: 59%
  Ratio of sound transgenic seeds: 67%
[2]; ethaboxam 0.05 gai/100 kg seed
  Ratio of sound non-transgenic seeds: 74.5%
  Ratio of sound transgenic seeds: 86.25%
[2]; ethaboxam 0.1 gai/100 kg seed
  Ratio of sound non-transgenic seeds: 78.25%
  Ratio of sound transgenic seeds: 85%
[2]; ethaboxam 0.5 gai/100 kg seed
  Ratio of sound non-transgenic seeds: 76.25%
  Ratio of sound transgenic seeds: 89.25%
[2]; ethaboxam 1.0 gai/100 kg seed
  Ratio of sound non-transgenic seeds: 77.75%
  Ratio of sound transgenic seeds: 87.75%
[2]; ethaboxam 5 gai/100 kg seed
  Ratio of sound non-transgenic seeds: 81%
  Ratio of sound transgenic seeds: 86%
[2]; ethaboxam 10 gai/100 kg seed
  Ratio of sound non-transgenic seeds: 76.25%
  Ratio of sound transgenic seeds: 88.5%
[3]; ethaboxam 0.05 gai/100 kg seed
  Ratio of sound non-transgenic seeds: 1.75%
  Ratio of sound transgenic seeds: 7.5%
[3]; ethaboxam 0.1 gai/100 kg seed
  Ratio of sound non-transgenic seeds: 6.25%
  Ratio of sound transgenic seeds: 6.25%
[3]; ethaboxam 0.5 gai/100 kg seed
  Ratio of sound non-transgenic seeds: 10.25%
  Ratio of sound transgenic seeds: 6%
[3]; ethaboxam 1.0 gai/100 kg seed
  Ratio of sound non-transgenic seeds: 7%
  Ratio of sound transgenic seeds: 14.25%
[3]; ethaboxam 5 gai/100 kg seed
  Ratio of sound non-transgenic seeds: 9.5%
  Ratio of sound transgenic seeds: 8.5%
[3]; ethaboxam 10 gai/100 kg seed
  Ratio of sound non-transgenic seeds: 6.5%
  Ratio of sound transgenic seeds: 17.75%
